Test results: patent publication US8933224B2, “Triazine derivatives” (Pfizer Inc., priority 2013, dated 2015)

Columns and labels:
[1] = target: human recombinant PDE10 enzyme (PDE10A) (Homo sapiens, UniProt Q9Y233); experiment: PDE10 scintillation proximity assay (SPA), inhibition of human recombinant PDE10 enzyme activity; assay type: biochemical; conditions: geometric mean of 2-4 determinations unless otherwise indicated (b: ≧5 determinations; c: single determination)
Method: PDE10 activity was measured using a scintillation assay (SPA-based method) similar to that previously described by Seeger, T. F. et al., Brain Research 985 (2003) 113-126. The compounds' relative activity as PDE10 inhibitors was investigated by assaying a fixed amount of enzyme in the presence of the test compound and low substrate concentration (cAMP) such that an IC50 could be determined. […] The assay is performed in a 384-well format with 50 μL assay buffer (50 mM TRIS pH 7.5; 1.3 mM MgCl2; 0.01% Brij) containing enough PDE10 to convert ˜20% of 20 nM ^3H-cAMP, and a range of inhibitors. Reactions are incubated for 30 minutes at 25° C. The addition of 20 μL of 8 mg/ml yttrium silicate SPA beads (PerkinElmer) stops the reaction. The plates are sealed (TopSeal, PerkinElmer) and the beads are allowed to settle for 8 hrs, after which they are read on the Trilux Microbeta overnight. ^1Rat enzyme preparation:^2Human enzyme preparation:
Human PDE10A coding sequence (amino acids 21 to 797 from the sequence with accession number NP_001124162.1) was synthesized using codon optimization for insect expression and cloned into the baculovirus expression vector pFastBac (Invitrogen) engineered to include a N-terminal His6 affinity tag to aid in purification as described in Seeger, T. F. et al., Brain Research 985 (2003) 113-126. The recombinant Bacmid was isolated and used to transfect sf9 insect cells to generate a viral stock. To generate cell paste for purification, sf21 cells were infected with the virus stock and cells were harvested 72 hours after infection as described in Seeger, T. F. et al., Brain Research 985 (2003) 113-126. Insect cell paste was lysed and after centrifugation, the supernatant was chromatographed on Ni-NTA agarose (Qiagen) as described in Seeger, T. F. et al., Brain Research 985 (2003) 113-126. Ni-NTA agarose eluting fractions containing PDE10A were chromatographed on Superdex 200 (GE Healthcare Life Sciences) in 50 mM Tris HCl pH 7.5, 150 mM NaCl, 1 mM EDTA, 10% glycerol, 2 mM TCEP, 1.5 mM benzamidine, EDTA-free protease inhibitors (Roche), and 5 μM E-64.

[2] = target: rat PDE10 enzyme (Rattus norvegicus (Rat), UniProt Q9QYJ6); experiment: PDE10 scintillation proximity assay (SPA), inhibition of rat PDE10 enzyme activity; assay type: biochemical; conditions: geometric mean of 2-4 determinations unless otherwise indicated (b: ≧5 determinations; c: single determination)
Chain of rat PDE10 enzyme (Q9QYJ6 24-794): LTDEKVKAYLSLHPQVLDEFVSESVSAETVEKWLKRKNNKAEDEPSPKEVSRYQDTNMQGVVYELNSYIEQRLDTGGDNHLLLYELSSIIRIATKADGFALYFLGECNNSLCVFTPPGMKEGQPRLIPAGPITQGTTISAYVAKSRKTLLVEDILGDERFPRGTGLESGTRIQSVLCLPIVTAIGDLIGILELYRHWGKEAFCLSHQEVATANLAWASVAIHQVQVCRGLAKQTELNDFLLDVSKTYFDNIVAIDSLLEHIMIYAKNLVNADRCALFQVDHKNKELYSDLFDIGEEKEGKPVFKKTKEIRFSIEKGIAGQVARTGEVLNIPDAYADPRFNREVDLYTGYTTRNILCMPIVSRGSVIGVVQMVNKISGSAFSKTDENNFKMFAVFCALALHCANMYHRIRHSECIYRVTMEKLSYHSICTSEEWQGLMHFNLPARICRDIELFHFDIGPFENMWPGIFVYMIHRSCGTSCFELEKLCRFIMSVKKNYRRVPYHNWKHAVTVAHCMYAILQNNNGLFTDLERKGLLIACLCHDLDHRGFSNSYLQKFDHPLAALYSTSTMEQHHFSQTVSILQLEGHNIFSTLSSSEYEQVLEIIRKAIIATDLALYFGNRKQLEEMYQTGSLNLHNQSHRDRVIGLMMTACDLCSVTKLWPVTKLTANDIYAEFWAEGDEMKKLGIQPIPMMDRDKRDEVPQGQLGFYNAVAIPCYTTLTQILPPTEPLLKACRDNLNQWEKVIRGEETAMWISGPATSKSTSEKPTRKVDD
Summary of the method: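 SPA with fixed recombinant PDE10 (Sf21-expressed, Ni-NTA and Mono Q purified) converting ~20% of 20 nM ³H-cAMP in 50 mM TRIS pH 7.5, 1.3 mM MgCl2, 0.01% Brij, across an inhibitor range.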

SMILES | IC50 [1] [nM] | IC50 [2] [nM]
Cc1nc([C@H]2CCCO2)c2c(N3CCc4cnn(C)c4C3)ncnn12 (single isomer, unassigned) [Example 13] | 7.59 | 
Cc1nc([C@@H]2CCOC2)c2c(N3Cc4c(cnn4C)[C@H](C)C3)ncnn12 (single isomer, unassigned) [Example 20] | 2.51 | 1.72
Cc1nc(-c2ccccc2F)c2c(N3CCc4nc(C5CC5)ncc4C3)ncnn12 [Example 1, 2-Cyclopropyl-6-[5-(2-fluorophenyl)-7-methylimidazo[5,1-f][1,2,4]triazin-4-yl]-5,6,7,8-tetrahydropyrido[4,3-d]pyrimidine] | 5.93 | 4.23
Cc1nc(-c2ccccc2F)c2c(N3CCc4cnn(C)c4C3)ncnn12 [Example 2, 5-(2-Fluorophenyl)-7-methyl-4-(1-methyl-1,4,5,7-tetrahydro-6H-pyrazolo[3,4-c]pyridin-6-yl)imidazo[5,1-f][1,2,4]triazine] | 3.28 | 2.95
Cc1nc([C@@H]2CCOC2)c2c(N3CCc4cccnc4C3)ncnn12 [Example 3, 7-{7-Methyl-5-[(3S)-tetrahydrofuran-3-yl]imidazo[5,1-f][1,2,4]triazin-4-yl}-5,6,7,8-tetrahydro-1,7-naphthyridine] | 0.785 | 0.607
Cc1nc([C@@H]2CCOC2)c2c(N3CCc4noc(C5CC5)c4C3)ncnn12 [Example 6, 4-(3-Cyclopropyl-6,7-dihydro[1,2]oxazolo[4,3-c]pyridin-5(4H)-yl)-7-methyl-5-[(3S)-tetrahydrofuran-3-yl]imidazo[5,1-f][1,2,4]triazine] | 0.406 | 0.364
CCn1c(C)nc2c(c1=O)CN(c1ncnn3c(C)nc(-c4ccccc4F)c13)CC2 [Example 126, 3-ethyl-6-[5-(2-fluorophenyl)-7-methylimidazo[5,1-f][1,2,4]triazin-4-yl]-2-methyl-5,6,7,8-tetrahydropyrido[4,3-d]pyrimidin-4(3H)-one] |  | 1.19
Cc1ccc2c(n1)CCN(c1ncnn3c(C)nc(-c4ccccc4F)c13)C2 [Example 138, 6-[5-(2-fluorophenyl)-7-methylimidazo[5,1-f][1,2,4]triazin-4-yl]-2-methyl-5,6,7,8-tetrahydro-1,6-naphthyridine] |  | 0.49
Cc1nc(-c2ccccc2F)c2c(N3CCc4nc(C5CC5)nc(OC(F)F)c4C3)ncnn12 [Example 140, 2-cyclopropyl-4-(difluoromethoxy)-6-[5-(2-fluorophenyl)-7-methylimidazo[5,1-f][1,2,4]triazin-4-yl]-5,6,7,8-tetrahydropyrido[4,3-d]pyrimidine] |  | 1.5
Cc1nc(-c2ccccc2F)c2c(N3CCc4nc(C5CC5)n(C)c(=O)c4C3)ncnn12 [Example 142, 2-cyclopropyl-6-[5-(2-fluorophenyl)-7-methylimidazo[5,1-f][1,2,4]triazin-4-yl]-3-methyl-5,6,7,8-tetrahydropyrido[4,3-d]pyrimidin-4(3H)-one] | 1.31 | 
CCOc1nc(C2CC2)nc2c1CN(c1ncnn3c(C)nc(-c4ccccc4F)c13)CC2 [Example 147, 2-cyclopropyl-4-ethoxy-6-[5-(2-fluorophenyl)-7-methylimidazo[5,1-f][1,2,4]triazin-4-yl]-5,6,7,8-tetrahydropyrido[4,3-d]pyrimidine] |  | 9.98
CCn1c(C2CC2)nc2c(c1=O)CN(c1ncnn3c(C)nc(-c4ccccc4F)c13)CC2 [Example 149, 2-cyclopropyl-3-ethyl-6-[5-(2-fluorophenyl)-7-methylimidazo[5,1-f][1,2,4]triazin-4-yl]-5,6,7,8-tetrahydropyrido[4,3-d]pyrimidin-4(3H)-one] |  | 0.497
Cc1nc(-c2ccccc2F)c2c(N3CCc4ncccc4C3)ncnn12 [Example 151, 6-[5-(2-fluorophenyl)-7-methylimidazo[5,1-f][1,2,4]triazin-4-yl]-5,6,7,8-tetrahydro-1,6-naphthyridine] |  | 1.01
CNc1ccc2c(n1)CCN(c1ncnn3c(C)nc(-c4ccccc4F)c13)C2 [Example 153, 6-[5-(2-fluorophenyl)-7-methylimidazo[5,1-f][1,2,4]triazin-4-yl]-N-methyl-5,6,7,8-tetrahydro-1,6-naphthyridin-2-amine] |  | 0.436
Cc1nc(-c2ccccc2F)c2c(N3CCc4c(O)nc(C5CCCC5)nc4C3)ncnn12 [Example 160, 2-cyclopentyl-7-[5-(2-fluorophenyl)-7-methylimidazo[5,1-f][1,2,4]triazin-4-yl]-5,6,7,8-tetrahydropyrido[3,4-d]pyrimidin-4-ol] |  | 3.76
Cc1nc([C@@H]2CCOC2)c2c(N3CCc4nccnc4C3)ncnn12 [Example 171, 6-{7-methyl-5-[(3S)-tetrahydrofuran-3-yl]imidazo[5,1-f][1,2,4]triazin-4-yl}-5,6,7,8-tetrahydropyrido[3,4-b]pyrazine] |  | 2.55
Cc1nc(-c2ccccc2F)c2c(N3CCc4ncnc(O)c4C3)ncnn12 [Example 172, 6-[5-(2-fluorophenyl)-7-methylimidazo[5,1-f][1,2,4]triazin-4-yl]-5,6,7,8-tetrahydropyrido[4,3-d]pyrimidin-4-ol] |  | 11.3

More lines, now with the values ahead:

IC50 [1] [nM] | IC50 [2] [nM] | SMILES
0.0386 | 0.205 | COc1ccc2c(c1OCCF)CN(c1ncnn3c(C)nc([C@@H]4CCOC4)c13)CC2 [Example 4, 8-(2-Fluoroethoxy)-7-methoxy-2-{7-methyl-5-[(3S)-tetrahydrofuran-3-yl]imidazo[5,1-f][1,2,4]triazin-4-yl}-1,2,3,4-tetrahydroisoquinoline]
0.427 | 0.299 | Cc1nc([C@@H]2CCOC2)c2c(N3CCc4cnn(C5CC5)c4C3)ncnn12 [Example 5, 4-(1-Cyclopropyl-1,4,5,7-tetrahydro-6H-pyrazolo[3,4-c]pyridin-6-yl)-7-methyl-5-[(3S)-tetrahydrofuran-3-yl]imidazo[5,1-f][1,2,4]triazine]
 | 0.0998 | CCn1c(C)nc2c(c1=O)CN(c1ncnn3c(C)nc([C@@H]4CCOC4)c13)CC2 [Example 129, 3-ethyl-2-methyl-6-{7-methyl-5-[(3S)-tetrahydrofuran-3-yl]imidazo[5,1-f][1,2,4]triazin-4-yl}-5,6,7,8-tetrahydropyrido[4,3-d]pyrimidin-4(3H)-one]
 | 0.265 | CCc1nc(C2CC2)nc2c1CN(c1ncnn3c(C)nc(-c4ccccc4F)c13)CC2 [Example 136, 2-cyclopropyl-4-ethyl-6-[5-(2-fluorophenyl)-7-methylimidazo[5,1-f][1,2,4]triazin-4-yl]-5,6,7,8-tetrahydropyrido[4,3-d]pyrimidine]
 | 0.142 | Cc1nc([C@@H]2CCOC2)c2c(N3CCc4nc(C5CC5)nc(OC(F)F)c4C3)ncnn12 [Example 141, 2-cyclopropyl-4-(difluoromethoxy)-6-{7-methyl-5-[(3S)-tetrahydrofuran-3-yl]imidazo[5,1-f][1,2,4]triazin-4-yl}-5,6,7,8-tetrahydropyrido[4,3-d]pyrimidine]
 | 0.0837 | [2H]C([2H])([2H])n1c(C2CC2)nc2c(c1=O)CN(c1ncnn3c(C)nc([C@@H]4CCOC4)c13)CC2 [Example 144]
 | 0.0697 | CCn1c(C2CC2)nc2c(c1=O)CN(c1ncnn3c(C)nc([C@@H]4CCOC4)c13)CC2 [Example 150, 2-cyclopropyl-3-ethyl-6-{7-methyl-5-[(3S)-tetrahydrofuran-3-yl]imidazo[5,1-f][1,2,4]triazin-4-yl}-5,6,7,8-tetrahydropyrido[4,3-d]pyrimidin-4(3H)-one]
 | 0.144 | Cc1nc([C@@H]2CCOC2)c2c(N3CCc4nc(C5CC5)ccc4C3)ncnn12 [Example 154, 2-cyclopropyl-6-{7-methyl-5-[(3S)-tetrahydrofuran-3-yl]imidazo[5,1-f][1,2,4]triazin-4-yl}-5,6,7,8-tetrahydro-1,6-naphthyridine]
 | 0.171 | Cc1cccc2c1CN(c1ncnn3c(C)nc([C@@H]4CCOC4)c13)CC2 [Example 155, 8-methyl-2-{7-methyl-5-[(3S)-tetrahydrofuran-3-yl]imidazo[5,1-f][1,2,4]triazin-4-yl}-1,2,3,4-tetrahydroisoquinoline]
 | 0.227 | Cc1nc([C@@H]2CCOC2)c2c(N3CCc4c(O)nc(C5CCCC5)nc4C3)ncnn12 [Example 158, 2-cyclopentyl-7-{7-methyl-5-[(3S)-tetrahydrofuran-3-yl]imidazo[5,1-f][1,2,4]triazin-4-yl}-5,6,7,8-tetrahydropyrido[3,4-d]pyrimidin-4-ol]
 | 0.136 | [2H]C([2H])([2H])Oc1nc(C2CC2)nc2c1CN(c1ncnn3c(C)nc([C@@H]4CCOC4)c13)CC2 [Example 173]
